Source: US10059741B2 (priority 2015, dated 2018)
“And” between values parts separate entries of the source, which are not always exact repeats. Identical values can stand only once. Like-named read-outs stand apart in the source and are kept apart here. Bridge positions count the residues as written; N and C are the ends. Square brackets hold non-standard residues; d marks the D form. Peptide text beside a SMILES is read from it. S5 = C=CCCC[C@](C)(N)C(=O)O; Nle = CCCC[C@H](N)C(=O)O; Aib = CC(C)(N)C(=O)O

Key:
H3N2 Perth/16/2009 [1] = assay: microbe, parasite or virus in culture; type: cell-based, influenza A virus
[2] = test system: Influenza A H1N1 Influenza A/California/7/2009; assay: microbe, parasite or virus in culture; type: cell-based, influenza A virus
[3] = test system: Influenza A H1N1 Influenza A/Texas/4/2009; assay: microbe, parasite or virus in culture; type: cell-based, influenza A virus
[4] = test system: H1N1 A/Solomon Island/03/2006; type: cell-based, influenza A virus; conditions: read-out: EC50 (μM), Cytopathic effect by Neutral Red
H1N1 California/07/2009 [5] = assay: microbe, parasite or virus in culture; type: cell-based, influenza A virus; conditions: read-out: EC50 (μM) H1N1 California/07/2009
H1N1 A/PR/8/34 = conditions: read-out: EC50 (μM), Cytopathic effect by Neutral Red
H1N1 A/Brisbane/59/2007 = assay: Cytopathic effect (CPE) inhibition in MDCK cells, neutral red; type: cell-based, influenza A virus
[6] = test system: H5N1 A/Hong Kong/213/2003; assay: microbe, parasite or virus in culture; type: cell-based, influenza A virus
H3N2 Perth/16/2009 [7] = assay: microbe, parasite or virus in culture; type: cell-based, influenza A virus; remark: listed apart in the source
[8] = test system: Influenza A H3N2 Influenza A/Brisbane/10/2007; assay: microbe, parasite or virus in culture; type: cell-based, influenza A virus
[9] = mouse, in vivo
H1N1 California/07/2009 [10] = assay: microbe, parasite or virus in culture; type: cell-based, influenza A virus
[11] = test system: Influenza B Florida/04/2006; assay: Cytopathic effect (CPE) inhibition in MDCK cells, neutral red; type: cell-based
H7N9 A/Anhui/1/2013 = assay: microbe, parasite or virus in culture; type: cell-based, influenza A virus
[12] = test system: influenza virus, various viral strains; type: cell-based
[13] = test system: Influenza B/Brisbane/60/2008; assay: microbe, parasite or virus in culture; type: cell-based
in vitro = conditions: dog
[14] = test system: influenza virus, various viral strains; assay: Influenza antiviral evaluation assay (CPE, neutral red dye uptake) in MDCK cells against various viral strains (Tables 8, 9); type: cell-based
[15] = test system: Influenza B Brisbane/60/2008; assay: Cytopathic effect (CPE) inhibition in MDCK cells, neutral red; type: cell-based
[16] = read-out: EC50 (μM) H3N2 Perth/16/2009
[17] = read-out: EC50 (μM), Cytopathic effect by Neutral Red

CCCC[C@H](NC(C)=O)C(=O)N[C@@H](CC(=O)O)C(=O)N[C@H](C(=O)N[C@@H](CC(N)=O)C(=O)N[C@@]1(C)CCCC=CCCC[C@@](C)(C(=O)N[C@@H](CC(C)C)C(=O)N[C@@H](C)C(=O)N[C@H](C(=O)NC(C)(C)C(=O)N[C@@H](C)C(=O)N[C@@H](CCC(N)=O)C(N)=O)C(C)C)NC(=O)[C@H](CC(C)C)NC(=O)[C@H](CC(C)C)NC(=O)[C@H]([C@@H](C)O)NC1=O)C(C)C [SP-6] (Ac-[Nle]DVN[S5]TLL[S5]LAV[Aib]AQ-NH2; staple 5-9)
broad antiviral activity: antiviral activity across influenza strains [14]
> 50 µM: EC50 [6, 17] | EC50 (H7N9 A/Anhui/1/2013; [17])
22 µM: EC90 (H3N2 Perth/16/2009 [1])
18 µM: EC50 ([11]; read-out: EC50)
5.6 µM and 5.5 µM: EC50 (H1N1 A/Brisbane/59/2007; read-out: EC50)
> 100 µM: EC50 ([2]; read-out: EC50) | EC90 ([2]; read-out: EC90) | EC50 ([3]; read-out: EC50) | EC90 ([3]; read-out: EC90) | EC50 ([6]; read-out: EC50) | EC50 ([8]; read-out: EC50) | EC90 ([8]; read-out: EC90) | EC50 (H7N9 A/Anhui/1/2013; read-out: EC50) | EC50 [12] | EC50 [13] | EC90 [13] | CC50 (in vitro; CC50) | CC50 (in vitro; CC50 (μM) H1N1 California/07/2009, Cell cytotoxicity (CC), run with H1N1 California/07/2009) | CC50 (in vitro; CC50 (μM) H3N2 Perth/16/2009, Cell cytotoxicity (CC), run with H3N2 Perth/16/2009) | CC50 (in vitro; CC50, MDCK cells, run with Influenza A H1N1 Brisbane/59/2007, Neutral Red) | CC50 (in vitro; CC50, MDCK cells, run with Influenza A H1N1 Brisbane/59/2007, Visual) | CC50 (in vitro; CC50, MDCK cells, run with Influenza A H1N1 California/04/2009-M, Neutral Red) | CC50 (in vitro; CC50, MDCK cells, run with Influenza A H1N1 California/04/2009-M, Visual) | CC50 (in vitro; CC50, MDCK cells, run with Influenza A H1N1 California/07/2009, VYR/Neutral Red) | CC50 (in vitro; CC50, MDCK cells, run with Influenza A H1N1 Solomon Is./3/2006-M, Neutral Red) | CC50 (in vitro; CC50, MDCK cells, run with Influenza A H1N1 Solomon Is./3/2006-M, Visual) | CC50 (in vitro; CC50, MDCK cells, run with Influenza A H1N1 Solomon Is./03/2006, Neutral Red) | CC50 (in vitro; CC50, MDCK cells, run with Influenza A H1N1 Solomon Is./03/2006, Visual) | CC50 (in vitro; CC50, MDCK cells, run with Influenza A H3N2 Perth/16/2009, Neutral Red) | CC50 (in vitro; CC50, MDCK cells, run with Influenza A H3N2 Perth/16/2009, VYR/Neutral Red) | CC50 (in vitro; CC50, MDCK cells, run with Influenza A H3N2 Perth/16/2009, Visual) | CC50 (in vitro; CC50, MDCK cells, run with Influenza A H3N2 Victoria/3/75-M, Neutral Red) | CC50 (in vitro; CC50, MDCK cells, run with Influenza A H3N2 Victoria/3/75-M, Visual) | CC50 (in vitro; CC50, MDCK cells, run with Influenza B Brisbane/60/2008, Neutral Red) | CC50 (in vitro; CC50, MDCK cells, run with Influenza B Brisbane/60/2008, Visual) | CC50 (in vitro; CC50, MDCK cells, run with Influenza B Florida/04/2006, Visual) | CC50 (in vitro; CC50, MDCK cells, run with Influenza B Sichuan/379/99-M, Neutral Red) | CC50 (in vitro; CC50, MDCK cells, run with Influenza B Sichuan/379/99-M, Visual) | CC50 (in vitro; CC50, run with Influenza A H3N2 Perth/16/2006 (so in the source), Neutral Red) | CC50 (in vitro; CC50, run with Influenza A H3N2 Perth/16/2006 (so in the source), Visual)
1.5 to 10 µM and < 1.5 µM: EC50 [4]
10 to 25 µM: EC50 (H1N1 California/07/2009 [5]) | EC50 (H1N1 A/PR/8/34) | EC50 (H1N1 California/07/2009 [10]; read-out: EC50 (μM) H1N1 California/07/2009) | EC50 [11, 17]
> 100 µM and 66 µM and 65 µM: EC90 [12]
98 µM: CC50 (in vitro; CC50, MDCK cells, run with Influenza B Florida/04/2006, Neutral Red)
1.5 to 10 µM: EC50 (H1N1 A/Brisbane/59/2007; [17]) | EC50 (H3N2 Perth/16/2009 [7]; [17]) | EC50 [15, 17]
all mice survived: survival [9]
7.1 µM: EC50 ([15]; read-out: EC50)
25 to 50 µM: EC50 (H3N2 Perth/16/2009 [1]; [16]) | EC50 (H3N2 Perth/16/2009 [7]; [16])
> 36 µM: EC90 (H1N1 California/07/2009 [10]; read-out: EC90)
